The values that follow come from US20100168040A1, “MUSCLE FATIGUE REMEDY” (Kyowa Hakko Kogyo Co., Ltd., priority 2006, published 2010).

For one data set, the system named is muscle fatigue. In words: Test Example 1: muscle fatigue status of healthy males consuming alanylglutamine continuously for 1 month. It counts as in vivo, human. To be noted: for Muscle fatigue status: 1 month. As for the experimental part:
Twenty-six healthy males ages 21 to 60 consumed alanylglutamine (manufactured by Kyowa Hakko Co., Ltd.) continuously for 1 month, and the muscle fatigue status of the subjects was evaluated.

The conditions of data set [1]: alanylglutamine compared to glutamine; cited from earlier work.
The conditions of data set [2]: alanylglutamine compared to glutamine; cited from earlier work. This is another data set of the same source.
The conditions of data set [3]: cited from earlier work.

Residues, ends and D or L forms follow the SMILES beside them.

Turning to `C[C@H](N)C(=O)N[C@@H](CCC(N)=O)C(=O)O` [alanylglutamine] (H-Ala-Gln-OH), the “subjects with alleviation of muscle pain after exercise” value with muscle fatigue (of the 15 listed subjects (26 in all), 1 month consumption) stood at 10 subjects. The “subjects in whom relief of muscle fatigue was observed” value in the data set with muscle fatigue (of the 26 subjects, 1 month consumption) is listed as 15 subjects. Further, the Muscle fatigue status result was “Disappearance of muscle pain” in the data set on muscle fatigue (subject 21 to 25 years, before going to bed, 2 g/administration); “Substantial relief of muscle pain” in the data set with muscle fatigue (subject 26 to 30 years, after exercising, 1 g/administration); “Reduction of muscle fatigue” in the data set on muscle fatigue (subject 26 to 30 years, before and after exercise, approximately 1 g/administration); “Feeling of damage relief” with muscle fatigue (subject 31 to 35 years, before exercise, 8 g/administration); “Reduction of muscle pain after” in the data set with muscle fatigue (subject 31 to 35 years, morning and before going to bed, 0.6 g/administration); “Lighter muscle pain after” in the data set on muscle fatigue (subject 31 to 35 years, morning, 0.5 g/administration). The Muscle fatigue status entry in the data set on muscle fatigue (subject 36 to 40 years, morning and evening, 0.5 g/administration) was “Reduction of muscle pain”; in the data set on muscle fatigue (subject 45 to 50 years, before going to bed, approximately 2.5 g/administration) it was “Reduction of stiff shoulders the”; in the data set with muscle fatigue (subject 46 to 50 years, after meals morning and evening, 1 g/administration), “Less fatigue and muscle pain”; in the data set with muscle fatigue (subject 51 to 55 years, before going to bed, approximately 0.5 g/administration), “Became less prone to fatigue”; in the data set on muscle fatigue (subject 51 to 55 years, every morning, 1 g/administration) it was “Alleviation of muscle pain after”; in the data set on muscle fatigue (subject 56 to 60 years, morning and evening, 0.5 g/administration), “Reduction of muscle pain”. In addition, the “solubility in aqueous solutions” value in data set [1] is on record as “superior”. The heat stability result in data set [2] is reported as “superior”. For the same compound, the “degradation in the body” value in data set [3] was “immediately degraded into alanine and glutamine”.
